The values below come from US20040120954A1, “Regulation of mt1-mmp activity” (priority 2000, published 2004).

Experiment [1] relates to tyrosine residues in the cytoplasmic domain of NGFR. The experiment can be described thus: Tyrosine phosphorylation of ectodomain/NGFR chimeras expressed in COS1 cells (homophilic complex formation). It counts as cell-based. The following applies: FIG. 9. The protocol:
Cell lysate samples were subjected to separation on SDS-PAGE, followed by a transfer of the proteins in the gel to nitrocellulose membranes (Hybond-ECL, Amersham Pharmacia Biotech, Inc.). After blocking with a solution of 10% skim milk dissolved in TBS (20 mM Tris-HCl buffer, pH 7.5 containing 150 mM NaCl), the membrane was exposed to a monoclonal anti-FLAG M2 antibody (3 μg/ml) for detecting FLAG-tagged MT1-MMP and its mutants. In order to visualize the immunoreactive bands, the membrane was further exposed to an alkaline phosphatase-conjugated goat anti-mouse IgG antibody. For the purpose of detecting a phosphotyrosine residue in chimera proteins, a monoclonal anti-phosphotyrosine antibody, PY20 (1 μg/ml) was used.
By utilizing the above principle, a chimeric protein is first constructed consisting of the ectodomain of MT1-MMP and the transmembrane (TM) and cytoplasmic (CP) domains of NGFR (FIG. 8) in order to test for direct complex formation. When the ectodomain of this chimeric protein forms a homophilic complex in a similar manner, tyrosine residues in the cytoplasmic domain will be phosphorylated.
A FLAG-tagged MT1-MMP (MT1-F) expression construct as used herein was as described in Itoh, Y. et al., J. Biol. Chem. 274: 34260-34266, 1999. In addition, MT1-F was used as a template to generate cDNAs for MT1Cat-F (Δ Ile^318-Gly^535) and MT1PEX-F (ΔTyr^112-Pro^312) by the PCR extension method of Ho et al. (Ho, S. N. et al., Gene, 77: 51-59, 1989). The cDNA was subcloned into pSG5 (Stratagene, CA, USA). Chimera mutants of the ectodomain of MT1-F, MT1Cat-F, MT1PEX-F or MT4PEX-F, with the transmembrane (TM)/cytoplasmic (CP) domain of NGFR were also generated by the PCR method in a similar manner, and subcloned into pSG5. The MT1-MMP-derived sequence corresponded to Met^1 through Asp^515 of MT1-MMP, while the NGFR-derived sequence corresponded to Glu^384 through Gly^790 of NGFR (GenBank™ accession number M23102). The other chimera mutants were also composed from these corresponding sequences. All the PCR-generated fragments were confirmed by DNA sequencing.
Expression vectors for the protein were transfected into COS1 cells, using FuGENE6™ (Roche Molecular Biochemicals) according to the manufacturer's instructions. COS1 cells were seeded in 6-well plates at 1.5×10^5/well at 16 hrs before the transfection was performed. The COS1 cells were maintained in a HAM F-12 medium or DMEM containing 10% fetal bovine serum in a humidified incubator at 37° C. At 48 hrs after the transfection, the cells were collected for use in the experiments.
To monitor the dimer formation of the enzyme in the cells, another approach to detect the molecular interactions was executed. […]

For experiment [2], the system named is MT1-MMP. The experiment is described as follows: Activation of proMMP-2 by MT1-MMP on the cell surface of transfected cells (gelatin zymography). It counts as cell-based, human. The following applies: transfected COS1 cells, exogenous purified proMMP-2 (FIGS. 2, 20). The procedure: Gelatin zymography was conducted using an SDS-polyacrylamide gel (PAGE) containing gelatin (0.8 mg/ml) (Itoh, Y. et al., J. Biol. Chem., 273: 24360-24367, 1998). The samples were mixed with a SDS-PAGE loading buffer without a reducing agent and subjected to electrophoretic analysis at room temperature. Enzyme activity was visualized as a negative staining area with Coomassie Brilliant Blue R-250.
The expression construct for FLAG epitope ([…]-tagged MT1-MMP (MT1-F) described in Itoh, Y. et al., J. Biol. Chem., 274: 34260-34266, 1999 was used as a template to generate cDNA for MT1Cat-F (A Ile^318-Gly^535) by the PCR extension method of Ho et al., (Ho, S. N. et al., Gene, 77: 51-59, 1989). The cDNA was subcloned into pSG5 (Stratagene, CA, USA). The PCR-generated fragments were confirmed by DNA sequencing. COS1 cells were transfected with the expression vector for MT1-MMP mutant; MT1-F or MT1Cat-F, or a vector alone (Mock). Expression vectors for each protein were transfected using FuGENE6™ (Roche Molecular Biochemicals) according to the manufacturer's instructions. COS1 cells were seeded in 6-well plates at 1.5×10^5/well at 16 hrs before the transfection was performed. The COS1 cells were maintained in a HAM F-12 medium or DMEM containing 10% fetal bovine serum in a humidified incubator at 37° C. At 48 hrs after the transfection, the cells were collected for use in the experiments. The cells were incubated in the presence of purified proMMP-2 in a serum-free medium (0.25 μg/ml) at 37° C. for 18 hrs. Cell lysates were tested for the expression of the mutants, while culture supernatants were tested for the activation of proMMP-2.
To investigate roles of dimer formation upon the activation of proMMP-2, MT1-F was introduced into COS1 cells together with MT1PEX-F. The co-introduced cells were reacted with exogenously added proMMP-2. Thus, COS1 cells were co-transfected with the MT1-F and MT1PEX-F at indicated DNA amount ratios. Next, purified proMMP-2 (0.25 μg/ml) in a serum-free medium was reacted with the resulting cells at 37° C. for 18 hrs. MMP-2 in the culture supernatant was analyzed by gelatin zymography, and the cell lysates were subjected to Western blotting analysis using a monoclonal anti-FLAG M2 antibody.
(§1) Next, to determine if MT1PEX-F affects the catalytic activity of MT1-MMP on the cell surface or not, tests for gelatin degrading activity and binding capacity to TIMP-2 were conducted using cells transfected in the same incubator. As shown in FIGS. 12 through 14, CHO-K1 cells were transfected with an expression vector for MT1-F, MT1-F/MT1PEX-F or MT1Cat-F, or a vector alone (Mock). The cells were then treated with trypsin, and separately seeded to: DQ™ gelatin-coated cover slips for testing the proteolytic activity (FIG. 13); and 24-well plates for TIMP-2 binding assay (FIG. 12) and for the activation of proMMP-2 (FIG. 14). Transfected cells on the DQ™ gelatin-coated cover slip as shown in FIG. 13 were incubated in a medium at 37° C. for 18 hrs, and the generated fluorescence was analyzed using confocal microscopy. Transfected cells on the 24-well plate as shown in FIG. 12 were incubated with 25 nM ^125I-labeled TIMP-2 in the presence or absence of BB-94 (50 μM) at 0° C. for 1 hr. MT1-MMP specific binding was calculated by subtracting the datum obtained in the presence of BB-94 (50 μM) from each datum derived from the corresponding experiments. […] DQ™ gelatin is a fluorescence-quenched gelatin, which fluoresces upon proteolytic cleavage. […]

Another experiment deals with T1, proMMP-2 (Homo sapiens, UniProt P08253).
T1 construct: made in house; host or cells: HighFive insect cells infected with recombinant baculovirus; purified from culture supernatant
T1 sequence (P08253 30-660 limits assumed): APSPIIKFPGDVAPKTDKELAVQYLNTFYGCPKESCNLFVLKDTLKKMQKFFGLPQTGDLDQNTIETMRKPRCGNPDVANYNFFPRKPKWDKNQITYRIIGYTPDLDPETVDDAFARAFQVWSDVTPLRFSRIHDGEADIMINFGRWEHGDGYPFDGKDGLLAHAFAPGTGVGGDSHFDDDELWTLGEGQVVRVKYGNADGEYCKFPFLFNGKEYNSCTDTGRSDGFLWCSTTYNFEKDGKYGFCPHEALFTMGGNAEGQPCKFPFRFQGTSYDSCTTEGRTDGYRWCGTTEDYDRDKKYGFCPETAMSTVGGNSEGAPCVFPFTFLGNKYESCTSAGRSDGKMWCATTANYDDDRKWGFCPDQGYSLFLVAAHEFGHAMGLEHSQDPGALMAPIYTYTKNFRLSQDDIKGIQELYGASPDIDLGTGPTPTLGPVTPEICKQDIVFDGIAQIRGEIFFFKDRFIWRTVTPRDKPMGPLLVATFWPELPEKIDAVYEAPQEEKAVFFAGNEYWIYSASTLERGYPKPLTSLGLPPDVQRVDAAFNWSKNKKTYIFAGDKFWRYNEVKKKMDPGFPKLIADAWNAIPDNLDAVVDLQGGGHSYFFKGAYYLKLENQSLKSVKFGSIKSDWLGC
The experiment is described as follows: ProMMP-2 binding assay on transfected COS1 cells. In kind it is cell-based. The following applies: COS1 cells expressing the mutant (FIG. 21). The procedure:
Transfected COS1 cells were cultured in a 24-well plate (0.2×10^4/well). Forty-eight hours after transfection, the cells were washed three times with serum-free DMEM, and incubated with purified proMMP-2 (2 μg/ml) in the serum-free DMEM at 25° C. for 1 hr. The cells were then washed three times with serum-free DMEM containing 5% dimethyl sulfoxide (DMSO) to remove free proMMP-2, and lysed in 50 μl of a non-reducing SDS-loading buffer. MMP-2 bound to the cells was analyzed by gelatin zymography.

The test system of experiment [3] is MT1-MMP. The experiment can be described thus: In situ gelatin degrading assay (DQ gelatin or Alexa488-conjugated gelatin). It counts as cell-based, human. The following applies: DQ gelatin; CHO-K1 (FIG. 13) or COS1 cells (FIG. 22). The procedure:
Two different in situ gelatin degrading assays were performed. One used DQ™ gelatin (Molecular Probes, Inc., OR, USA). DQ gelatin is a fluorescence-quenched gelatin substrate, and will fluoresce upon proteolytic cleavage. Glass cover slips were coated with 5% DQ™ gelatin in a 10 mg/ml unlabeled gelatin solution, and dried. Transfected cells were cultured on the cover slip in a humidified chamber for 16 hrs. The cells were then fixed with 3% para-formaldehyde and the degraded areas were visualized as those showing fluorescence.
The other assay used Alexa488-conjugated gelatin made with an Alexa488-labeling kit (Molecular Probes). The bottom surfaces of 4-well chamber slides (Nunc) were coated with Alexa488-conjugated gelatin according to the method of Yana, I. and Weiss, S. J., Mol. Biol. Cell, 11, 2387-2401, 2000. Transfected COS1 cells were cultured in the chamber slides for 16 hrs in a humidified culture incubator. The cells were then fixed with 3% para-formaldehyde in PBS, and the degraded area was analyzed under a fluorescence microscope. The degraded area was visualized as a dark, non-fluorescent area. Fluorescence images were analyzed using confocal microscopy (BioRad).
as §1, with “experiments. Identically transfected cells on the 24-well plate as shown in FIG. 14 were subjected to the reaction with purified proMMP-2 in a serum-free medium at 37° C. for 18 hrs. The cells and culture supernatants were respectively subjected to Western blotting analysis using a monoclonal anti-FLAG M2 antibody, and gelatin zymography analysis.” for “experiments.”

In the case of “MT1PEX-F/NGFR: Chimera of the ectodomain of MT1PEX-F with the transmembrane/cytoplasmic domain of NGFR”, in experiment [1], the “tyrosine phosphorylation of the chimera (Anti-PY)” value is reported as “strongly phosphorylated”. In the case of “MT1-F/NGFR: Chimera of the ectodomain of MT1-F with the transmembrane/cytoplasmic domain of NGFR”, in experiment [1], the “tyrosine phosphorylation of the chimera (Anti-PY)” value is given as “phosphorylated”. Same read-out and setting: to “MT4PEX-F/NGFR: Chimera of the ectodomain of MT4PEX-F with the transmembrane/cytoplasmic domain of NGFR” belongs “extremely low”; to “MT1Cat-F/NGFR: Chimera of the ectodomain of MT1Cat-F with the transmembrane/cytoplasmic domain of NGFR”, “extremely low”. As for “MT1-MT4PEX: MT1-MMP in which Cys319 to Cys508 is replaced with Cys336 to Cys527 of mouse MT4-MMP”, the “activation of proMMP-2 by cells expressing the mutant” value in the experiment on MT1-MMP [2] is on record as “did not activate proMMP-2”. Also, the “ternary complex formation with TIMP-2/proMMP-2 on the cell surface” value with proMMP-2 is “can form a ternary complex”. In addition, in the experiment on MT1-MMP [3], the “gelatin degrading (proteolytic) activity of cells expressing the mutant” value is given as “showed proteolytic activity”.
